Test results taken from patent US11981675B1, “Pyrrolo[3,2-C]quinoline-2,3-dione compounds as CK2 inhibitors” (KING FAISAL UNIVERSITY, priority 2023, dated 2024).

How the values were obtained:
[1] = system: H1299 (lung); assay: In vitro cytotoxic activity assay (MTT), H1299; assay type: cell-based; settings: Homo sapiens, NCI-H1299; H1299 (lung) cells, exposed for 96 hours; read-out: Cytotoxicity activity IC50 (50% inhibition of cell proliferation)
Protocol: (§1) Compounds 1-16 were screened for their in vitro cytotoxic activity utilizing a 3-(4,5-dimethyl-thiazol-2-yl)-2,5-diphenyltetrazolium bromide (MTT) assay against selected cancer human cell lines consisting of PC3 (prostate), HCT116 (colon), A375 (melanoma), H1299 (lung), MIAPaCa-2 (pancreas), HL60 (leukemia), MCF7 (breast), MDA-MB-231 (breast) (T. Mosmann, J. Immunol. Meth., 1983, 65, 55-63). The cells were cultured at 37° C. in RMPI1640 medium supplemented with 10% fetal bovine serum, 50 IU/mL penicillin, and 50 μg/mL streptomycin in a 5% CO2 incubator. All cells were sub-cultured 3 times/week by trypsinisation. Viable cells were seeded and allowed to adhere for 12 h before a test drug was added in 96-well plates at an initial density of 1.0×10^5 cells/mL. Tumor cell lines were separately exposed to various concentrations of the tested compounds followed by incubation at a temperature of 37° C. during 96 hours inside a medium of fresh RMPI 1640. Cells were subsequently incubated at 37° C. using MTT at 0.5 mg/mL during 4 hours. After removal of supernatant, formazan crystals were dissolved in isopropanol and the optical density was measured at 570 nm. CX-4945 was used as a positive control.

[2] = system: MDA-MB-231 (breast); assay: In vitro cytotoxic activity assay (MTT), MDA-MB-231; assay type: cell-based; settings: Homo sapiens; MDA-MB-231 (breast) cells, exposed for 96 hours; read-out: Cytotoxicity activity IC50 (50% inhibition of cell proliferation)
Protocol: as §1

[3] = system: HL60 (leukemia); assay: In vitro cytotoxic activity assay (MTT), HL60; assay type: cell-based; settings: Homo sapiens, HL-60; HL60 (leukemia) cells, exposed for 96 hours; read-out: Cytotoxicity activity IC50 (50% inhibition of cell proliferation)
Protocol: as §1

[4] = target: T1, recombinant human CK2 (RRββ-holoenzyme) (Homo sapiens, UniProt P68400); assay: CK2 Kinase Assay (radiometric, [γ-33P] ATP); assay type: biochemical; settings: final ATP concentration 15 μM, 10 min at 30° C., eight concentrations; read-out: protein kinase CK2 activity IC50
T1 construct: purchased Millipore
T1 sequence (P68400 whole entry): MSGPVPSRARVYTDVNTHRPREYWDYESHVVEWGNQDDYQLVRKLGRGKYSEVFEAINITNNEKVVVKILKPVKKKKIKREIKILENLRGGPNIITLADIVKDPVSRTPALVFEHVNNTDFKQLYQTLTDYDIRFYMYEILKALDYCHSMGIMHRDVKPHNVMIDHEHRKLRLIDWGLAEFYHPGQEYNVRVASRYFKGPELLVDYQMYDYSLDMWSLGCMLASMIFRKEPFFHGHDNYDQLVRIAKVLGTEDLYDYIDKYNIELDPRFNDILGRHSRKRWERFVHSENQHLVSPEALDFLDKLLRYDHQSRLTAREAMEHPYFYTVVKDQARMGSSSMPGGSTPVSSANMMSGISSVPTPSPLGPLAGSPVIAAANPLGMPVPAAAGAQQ
T1 sequence (P67870 whole entry partner): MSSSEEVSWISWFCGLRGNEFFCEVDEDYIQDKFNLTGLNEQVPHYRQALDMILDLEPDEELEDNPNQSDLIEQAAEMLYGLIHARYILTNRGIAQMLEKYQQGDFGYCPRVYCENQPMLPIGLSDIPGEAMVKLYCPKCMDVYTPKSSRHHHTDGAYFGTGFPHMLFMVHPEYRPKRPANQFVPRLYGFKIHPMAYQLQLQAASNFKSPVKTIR
Protocol: CK2 Kinase Assay was conducted using the protocol as described in Pierre F. et al; J. Med. Chem. 2011, 54, 635-654. The tested compounds in aqueous solution were added at a volume of 10 μL to a reaction mixture comprising 10 μL of assay dilution buffer (ADB; 20 mM MOPS, pH 7.2, 25 mM β-glycerol phosphate, 5 mM EGTA, 1 mM sodium orthovanadate, and 1 mM dithiothreitol), 10 μL of substrate peptide (RRRDDDSDDD, dissolved in ADB at a concentration of 1 mM), 10 μL of recombinant human CK2 (RRββ-holoenzyme, 25 ng dissolved in ADB; Millipore). Reactions were initiated by the addition of 10 μL of ATP solution (90% 75 mM MgCl2, 75 μM ATP (final ATP concentration:15 μM) dissolved in ADB; 10% [γ-33P] ATP (stock 1 mCi/100 μL; 3000 Ci/mmol (Perkin-Elmer) and maintained for 10 min at 30° C. The reactions were quenched with 100 μL of 0.75% phosphoric acid and then transferred to and filtered through a phosphor cellulose filter plate (Millipore). After washing each well five times with 0.75% phosphoric acid, the plate was dried under vacuum for 5 min and, following the addition of 15 μL of scintillation fluid to each well, the residual radioactivity was measured using a Wallac luminescence counter. The IC50 values were derived from eight concentrations of test inhibitors.

[5] = system: MCF7 (breast); assay: In vitro cytotoxic activity assay (MTT), MCF7; assay type: cell-based; settings: Homo sapiens; MCF7 (breast) cells, exposed for 96 hours; read-out: Cytotoxicity activity IC50 (50% inhibition of cell proliferation)
Protocol: as §1

[6] = system: PC3 (prostate); assay: In vitro cytotoxic activity assay (MTT), PC3; assay type: cell-based; settings: Homo sapiens, Prostate cell; PC3 (prostate) cells, exposed for 96 hours; read-out: Cytotoxicity activity IC50 (50% inhibition of cell proliferation)
Protocol: as §1

[7] = system: HCT116 (colon); assay: In vitro cytotoxic activity assay (MTT), HCT116; assay type: cell-based; settings: Homo sapiens, HCT-116; HCT116 (colon) cells, exposed for 96 hours; read-out: Cytotoxicity activity IC50 (50% inhibition of cell proliferation)
Protocol: as §1

[8] = system: MIAPaCa-2 (pancreas); assay: In vitro cytotoxic activity assay (MTT), MIAPaCa-2; assay type: cell-based; settings: Homo sapiens, MIA PaCa-2; MIAPaCa-2 (pancreas) cells, exposed for 96 hours; read-out: Cytotoxicity activity IC50 (50% inhibition of cell proliferation)
Protocol: as §1

[9] = system: A375 (melanoma); assay: In vitro cytotoxic activity assay (MTT), A375; assay type: cell-based; settings: Homo sapiens, A-375; A375 (melanoma) cells, exposed for 96 hours; read-out: Cytotoxicity activity IC50 (50% inhibition of cell proliferation)
Protocol: as §1

O=C1Nc2c(c(Nc3cccc(Cl)c3)nc3cc(C(=O)O)ccc23)C1=O [Compound (1), 4-((3-chlorophenyl)amino)-2,3-dioxo-2,3-dihydro-1H-pyrrolo[3,2-c]quinoline-7-carboxylic acid]
IC50 [1]: 1900 nM
IC50 [2]: 4100 nM
IC50 [3]: 3600 nM
IC50 [4]: 22 nM
IC50 [5]: 5200 nM
IC50 [6]: 1300 nM
IC50 [7]: 1600 nM
IC50 [8]: 900 nM
IC50 [9]: 3200 nM
